Data taken from PubChem BioAssay AID192 (DTP/NCI, 2004).
“And” between values parts separate entries of the source, which are not always exact repeats. Equal values may be shown once. Inconclusive results and toxic doses are left out. The calls were made as follows: active = survival T/C of 150% or more; inactive = T/C below 125% in these data.

Tested on: BDF1 mice, B16 melanoma ip, median survival T/C
Experiment: NCI In Vivo Anticancer Drug Screen. Data for tumor model B16 Melanoma (intraperitoneal) in B6D2F1 (BDF1) mice
Conditions: endpoint: median survival time, higher = longer survival
In short: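 Survival or tumor size is measured after treatment of tumor-bearing mice and normalised to the vehicle-treated control group.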

[1] = dose: 12.5 mg/kg/injection, schedule: Q01DX009 (ip), vehicle: saline
[2] = dose: 50.0 mg/kg/injection, schedule: Q01DX009 (ip), vehicle: saline
[3] = dose: 100.0 mg/kg/injection, schedule: Q01DX009 (ip), vehicle: saline
[4] = dose: 1.56 mg/kg/injection, schedule: Q01DX009 (ip), vehicle: Klucel (hydroxypropylcellulose) (HPC)
[5] = dose: 6.25 mg/kg/injection, schedule: Q01DX009 (ip), vehicle: Klucel (hydroxypropylcellulose) (HPC)
[6] = dose: 12.5 mg/kg/injection, schedule: Q01DX009 (ip), vehicle: Klucel (hydroxypropylcellulose) (HPC)
[7] = dose: 25.0 mg/kg/injection, schedule: Q01DX009 (ip), vehicle: Klucel (hydroxypropylcellulose) (HPC)
[8] = dose: 25.0 mg/kg/injection, schedule: Q01DX009 (ip), vehicle: saline with Tween-80
[9] = dose: 50.0 mg/kg/injection, schedule: Q01DX009 (ip), vehicle: saline with Tween-80
[10] = dose: 100.0 mg/kg/injection, schedule: Q01DX009 (ip), vehicle: saline with Tween-80
[11] = dose: 50.0 mg/kg/injection, schedule: Q01DX009 (ip), vehicle: Klucel (hydroxypropylcellulose) (HPC)

Measured: T/C

CC(=O)O[C@@]1(C)[C@@H](C)C(=O)O[C@@H]2CCN3CC=C(COC(=O)[C@]1(C)O)[C@H]23
inactive: [1] 119 % of control | [2] 119 % of control | [3] 97 % of control

C=C(C)C12CC(C)C34OC(CCCCCCCCCCC)(OC1C3C1OC1(CO)C(O)C1(O)C(=O)C(C)=CC14C)O2 (configuration not stated)
inactive: dose: 0.05 mg/kg/injection, schedule: Q01DX009 (ip), vehicle: distilled water + Tween-80 103 % of control | dose: 0.1 mg/kg/injection, schedule: Q01DX009 (ip), vehicle: distilled water + Tween-80 102 % of control | dose: 0.2 mg/kg/injection, schedule: Q01DX009 (ip), vehicle: distilled water + Tween-80 91 % of control | dose: 0.4 mg/kg/injection, schedule: Q01DX009 (ip), vehicle: distilled water + Tween-80 90 % of control

CCCCCCCCCCCCCCCC(=O)N(CCCN(CC)CC)C(C)CCCN(CC)CC (configuration not stated)
inactive: dose: 0.78 mg/kg/injection, schedule: Q01DX009 (ip), vehicle: water 103 % of control | [4] 110 % of control | dose: 1.56 mg/kg/injection, schedule: Q01DX009 (ip), vehicle: water 104 % of control | dose: 3.13 mg/kg/injection, schedule: Q01DX009 (ip), vehicle: Klucel (hydroxypropylcellulose) (HPC) 102 % of control | dose: 3.13 mg/kg/injection, schedule: Q01DX009 (ip), vehicle: water 104 % of control | [5] 86 % of control and 97 % of control | dose: 6.25 mg/kg/injection, schedule: Q01DX009 (ip), vehicle: water 90 % of control

CCCCCCCCCc1ccc(OC(=O)CCC)cc1
inactive: [6] 106 % of control | [7] 94 % of control | dose: 400.0 mg/kg/injection, schedule: Q01DX009 (ip), vehicle: Klucel (hydroxypropylcellulose) (HPC) 87 % of control

CN(C)c1n[nH]c(N)n1
inactive: [1] 91 % of control | dose: 25.0 mg/kg/injection, schedule: Q01DX009 (ip), vehicle: saline 102 % of control | [2] 95 % of control | [3] 96 % of control | dose: 200.0 mg/kg/injection, schedule: Q01DX009 (ip), vehicle: saline 102 % of control | dose: 400.0 mg/kg/injection, schedule: Q01DX009 (ip), vehicle: saline 104 % of control

Clc1c(Cl)c(CBr)c(Cl)c(CBr)c1Cl
inactive: [4] 100 % of control | [5] 105 % of control | [6] 102 % of control | dose: 12.5 mg/kg/injection, schedule: Q04DX003 (ip), vehicle: saline with Tween-80 86 % of control | [8] 95 % of control | dose: 25.0 mg/kg/injection, schedule: Q04DX003 (ip), vehicle: saline with Tween-80 92 % of control | [9] 97 % of control | [10] 95 % of control

COC12C(COC(N)=O)C3=C(C(=O)C(C)=C(N)C3=O)N1CC1C2N1C (configuration not stated)
inactive: dose: 0.25 mg/kg/injection, schedule: Q01DX009 (ip), vehicle: saline 120 % of control | dose: 0.5 mg/kg/injection, schedule: Q01DX009 (ip), vehicle: saline 123 % of control | dose: 1.0 mg/kg/injection, schedule: Q01DX009 (ip), vehicle: saline 114 % of control | dose: 2.0 mg/kg/injection, schedule: Q01DX009 (ip), vehicle: Klucel (hydroxypropylcellulose) (HPC) 106 % of control | dose: 4.0 mg/kg/injection, schedule: Q01DX009 (ip), vehicle: Klucel (hydroxypropylcellulose) (HPC) 124 % of control

COc1ccc(Cl)cc1N
inactive: [8] 95 % of control | [9] 100 % of control | [10] 105 % of control

CC(COCc1ccccc1)NCc1ccccc1 (configuration not stated)
inactive: [7] 96 % of control | [11] 90 % of control

NC(=O)CN1C(=O)c2ccccc2C1=O
inactive: [10] 97 % of control | dose: 200.0 mg/kg/injection, schedule: Q01DX009 (ip), vehicle: saline with Tween-80 104 % of control | dose: 400.0 mg/kg/injection, schedule: Q01DX009 (ip), vehicle: saline with Tween-80 97 % of control

O=C1/C(=C\c2ccc([N+](=O)[O-])cc2)CS(=O)(=O)C/C1=C/c1ccc([N+](=O)[O-])cc1
inactive: [11] 91 % of control | dose: 100.0 mg/kg/injection, schedule: Q01DX009 (ip), vehicle: Klucel (hydroxypropylcellulose) (HPC) 97 % of control | dose: 200.0 mg/kg/injection, schedule: Q01DX009 (ip), vehicle: Klucel (hydroxypropylcellulose) (HPC) 102 % of control
